{
  "source": "the RepoRT retention time repository (doi:10.1021/pr300673x)",
  "data": [
    {"experiment": "RP, 50 × 2.1 mm, 1.7 µm, 0.5 mL/min, estimated dead time 0.22 min; A: 98% water + 2% acetonitrile + 0.1% formic acid, pH 3; B: 2% water + 98% acetonitrile + 0.1% formic acid, pH 3; gradient (min/%B) 0/0 0.5/0 4/60 8/100 9/100 9.2/0 10/0", "conditions": "stereoisomer not certain", "units": {"LC retention time": "min"}, "values": [
      {"smiles": "CC(CCC(=O)NCCS(=O)(=O)O)C1CCC2C3C(O)CC4CC(O)CCC4(C)C3CCC12C", "note": "(stereo not given) [taurochenodeoxycholic acid (TCDCA)]", "LC retention time": 3.89},
      {"smiles": "CCCCCCCCCCCCCC=CC(O)C(COP(=O)(O)O)NC(=O)CCCCCCCCCCC", "note": "(stereo not given) [CerP(d18:1/12:0)]", "LC retention time": 7.37},
      {"smiles": "C=CC1=C(C)C(=Cc2[nH]c(Cc3[nH]c(C=C4NC(=O)C(C)=C4C=C)c(C)c3CCC(=O)O)c(CCC(=O)O)c2C)NC1=O", "note": "[4E,15Z-bilirubin IXa]", "LC retention time": 7.62},
      {"smiles": "NC(N)=NCCC[C@H](NCCC(=O)O)C(=O)O", "note": "[L-N2-(2-carboxyethyl)arginine]", "LC retention time": 4.28},
      {"smiles": "NC(N)=NCCC(=O)O", "note": "[3-guanidinopropionic acid]", "LC retention time": 0.883},
      {"smiles": "CC(CCC(=O)O)C1CCC2C3CC(O)C4CC(O)CCC4(C)C3CCC12C", "note": "(stereo not given)", "LC retention time": 4.78},
      {"smiles": "CCCCCCCCC=CCCCCCCCC(N)=O", "note": "[oleamide]", "LC retention time": 7.16},
      {"smiles": "CCCCCCCCCCCCCCCCOCC(O)COP(=O)([O-])OCC[N+](C)(C)C", "note": "(stereo not given) [PC(O-16:0/0:0)]", "LC retention time": 6.42},
      {"smiles": "CCCCCCCCCCCCCCCC(=O)OC(CC(=O)[O-])C[N+](C)(C)C", "note": "(stereo not given) [palmitylcarnitine]", "LC retention time": 6.15},
      {"smiles": "CC(CCC(=O)NCC(=O)O)C1CCC2C3C(O)CC4CC(O)CCC4(C)C3CCC12C", "note": "(stereo not given) [glycochenodeoxycholic acid (GCDCA)]", "LC retention time": 4.79},
      {"smiles": "CCCCCCCCCCCCCCCCCC(O)CC(=O)O", "note": "(stereo not given) [3-hydroxyeicosanoic acid]", "LC retention time": 7.39},
      {"smiles": "CC(=O)Cc1ccccc1", "note": "[phenylmethyl methyl ketone]", "LC retention time": 3.31},
      {"smiles": "CC(=O)C(CCCCN)NS(=O)(=O)c1ccc(C)cc1", "note": "[N-tosyl-L-lysinyl methyl ketone]", "LC retention time": 7.42},
      {"smiles": "CC(CCC(=O)NCC(=O)O)C1CCC2C3CCC4CC(O)CCC4(C)C3CC(O)C12C", "note": "(stereo not given) [glycodeoxycholic acid (GDCA)]", "LC retention time": 4.28},
      {"smiles": "CCCCCC=CCC=CCCCCCCCC(=O)O", "note": "[octadecadienoic acid]", "LC retention time": 7.44},
      {"smiles": "C=CC1=C(C)C(=O)N=C1C=c1[nH]c(=Cc2[nH]c(CC3NC(=O)C(C=C)=C3C)c(C)c2CCC(=O)O)c(CCC(=O)O)c1C", "note": "(stereo not given) [15,16-dihydrobiliverdin]", "LC retention time": 7.42},
      {"smiles": "CCCCCCCCC=CCCCCCCCCCC(=O)OCC(O)COP(=O)([O-])OCC[N+](C)(C)C", "note": "(stereo not given) [LysoPC(20:1)]", "LC retention time": 6.88},
      {"smiles": "CCCCCCCCCC(=O)O[C@H](CC(=O)[O-])C[N+](C)(C)C", "note": "[O-decanoyl-L-carnitine]", "LC retention time": 5.71},
      {"smiles": "CCCCCCCC(=O)O[C@H](CC(=O)[O-])C[N+](C)(C)C", "note": "[O-octanoyl-R-carnitine]", "LC retention time": 5.12},
      {"smiles": "CCCCCCCCC=CCCCCCCCC(=O)OC(CC(=O)[O-])C[N+](C)(C)C", "note": "(stereo not given) [oleoylcarnitine]", "LC retention time": 6.24},
      {"smiles": "CCCCCC=CCC=CCC=CCC=CCCCC(=O)OCC(O)COP(=O)([O-])OCC[N+](C)(C)C", "note": "(stereo not given) [LysoPC(20:4)]", "LC retention time": 7.74},
      {"smiles": "CC(=CCCC(C)C1CCC2C3C(O)CC4CC(O)CCC4(C)C3CCC12C)C(=O)O", "note": "(racemic)", "LC retention time": 6.87},
      {"smiles": "CC(CCC(=O)NCC(=O)O)C1CCC2C3C(O)CC4CC(O)CCC4(C)C3CC(O)C12C", "note": "(stereo not given) [glycocholic acid (GCA)]", "LC retention time": 4.3},
      {"smiles": "[NH3+]C(Cc1ccccc1)C(=O)NC(Cc1ccccc1)C(=O)[O-]", "note": "(stereo not given) [Phe-Phe]", "LC retention time": 2.91},
      {"smiles": "CCCCCC=CCC=CCCCCCCCC(=O)OC(CC(=O)[O-])C[N+](C)(C)C", "note": "(stereo not given) [O-linoelaidylcarnitine]", "LC retention time": 5.98}
    ]}
  ]
}
